pIC50: −log10 of the molar value.
Molecular target: T1, PI3Kα (p110α/p85α) (Homo sapiens, UniProt P42336)
T1 construct: purchased BPS Bioscience (San Diego, Calif.) or Millipore (Billerica, Mass.)
Test: HTRF assay, potency against active PI3Kα
Type: biochemical
Conditions: HTRF; [ATP]=50 μM, [di-C8-PIP2]=10 μM; 30 min pre-incubation; read-out: PI3Kα Inhibition
How it was run: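 IC50 came from a variable-slope fit of % inhibition, calculated from the HTRF emission ratio relative to wells with and without enzyme. Reactions with the active enzyme complex ran 30-60 minutes at 25 °C after ATP addition before stop and detection reagents.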

T1 sequence (P42336 whole entry): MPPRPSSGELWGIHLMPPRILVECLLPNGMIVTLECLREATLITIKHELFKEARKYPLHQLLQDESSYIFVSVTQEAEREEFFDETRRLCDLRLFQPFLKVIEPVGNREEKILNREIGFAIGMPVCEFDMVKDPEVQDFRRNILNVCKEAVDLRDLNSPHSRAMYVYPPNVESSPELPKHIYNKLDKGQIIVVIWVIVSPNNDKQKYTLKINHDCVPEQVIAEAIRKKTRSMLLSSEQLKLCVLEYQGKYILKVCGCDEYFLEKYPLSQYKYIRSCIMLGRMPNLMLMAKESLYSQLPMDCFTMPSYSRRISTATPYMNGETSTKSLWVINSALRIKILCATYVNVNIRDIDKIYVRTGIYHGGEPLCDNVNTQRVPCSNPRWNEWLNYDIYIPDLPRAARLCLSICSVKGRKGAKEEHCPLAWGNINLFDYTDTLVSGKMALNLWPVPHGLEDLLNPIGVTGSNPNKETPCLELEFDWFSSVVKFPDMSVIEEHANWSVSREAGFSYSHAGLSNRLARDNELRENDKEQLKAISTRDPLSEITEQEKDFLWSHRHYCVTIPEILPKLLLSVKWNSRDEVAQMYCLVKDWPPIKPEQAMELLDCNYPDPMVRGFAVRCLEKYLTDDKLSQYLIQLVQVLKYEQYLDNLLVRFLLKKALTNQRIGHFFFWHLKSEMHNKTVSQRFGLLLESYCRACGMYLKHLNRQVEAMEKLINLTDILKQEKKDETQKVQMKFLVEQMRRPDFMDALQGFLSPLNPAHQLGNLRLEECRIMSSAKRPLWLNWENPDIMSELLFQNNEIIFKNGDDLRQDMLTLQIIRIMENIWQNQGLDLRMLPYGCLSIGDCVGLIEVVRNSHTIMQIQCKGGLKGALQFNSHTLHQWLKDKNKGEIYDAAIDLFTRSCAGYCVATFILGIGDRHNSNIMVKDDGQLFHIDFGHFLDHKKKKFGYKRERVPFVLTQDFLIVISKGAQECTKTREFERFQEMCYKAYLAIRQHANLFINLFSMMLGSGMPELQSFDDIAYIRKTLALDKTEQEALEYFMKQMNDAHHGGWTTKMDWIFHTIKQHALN
T1 sequence (P27986 whole entry partner): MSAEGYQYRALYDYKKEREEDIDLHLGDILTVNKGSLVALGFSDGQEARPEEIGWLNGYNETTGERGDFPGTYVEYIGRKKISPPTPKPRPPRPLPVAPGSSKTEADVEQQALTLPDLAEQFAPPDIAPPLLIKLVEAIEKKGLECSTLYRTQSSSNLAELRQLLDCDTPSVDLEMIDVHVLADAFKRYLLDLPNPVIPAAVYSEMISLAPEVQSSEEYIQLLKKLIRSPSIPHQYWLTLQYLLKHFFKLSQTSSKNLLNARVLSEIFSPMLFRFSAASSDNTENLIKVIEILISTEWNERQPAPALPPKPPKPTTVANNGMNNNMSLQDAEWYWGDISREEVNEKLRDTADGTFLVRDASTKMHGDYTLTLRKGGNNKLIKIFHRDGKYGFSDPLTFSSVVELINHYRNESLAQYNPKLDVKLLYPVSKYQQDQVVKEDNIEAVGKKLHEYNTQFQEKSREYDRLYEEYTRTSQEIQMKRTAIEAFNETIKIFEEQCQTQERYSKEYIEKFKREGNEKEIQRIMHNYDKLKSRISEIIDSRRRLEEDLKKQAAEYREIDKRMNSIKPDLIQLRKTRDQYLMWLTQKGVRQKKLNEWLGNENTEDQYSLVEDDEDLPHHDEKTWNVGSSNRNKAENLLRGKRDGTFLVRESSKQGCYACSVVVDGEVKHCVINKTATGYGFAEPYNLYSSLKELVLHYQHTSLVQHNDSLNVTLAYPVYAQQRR

Structure (SMILES) | pIC50
C=CC(=O)Nc1ccc(OCc2cc3nc(-c4cnc(N)nc4)cc(N4CCOCC4)c3s2)cc1 [II-g-8, N-(4-((5-(2-aminopyrimidin-5-yl)-7-morpholinothieno[3,2-b]pyridin-2-yl)methoxy)phenyl)acrylamide] | 6.00 to 7.00
CCC(=O)NCc1cccc(-c2cc3nc(-c4cccc(O)c4)nc(N4CCOCC4)c3s2)c1 [II^R-a-64, N-(3-(2-(3-hydroxyphenyl)-4-morpholinothieno[3,2-d]pyrimidin-6-yl)benzyl)propionamide] | 6.00 to 7.00
CCC(=O)NC1CCN(c2ccc(-c3cc4nc(-c5cccc(O)c5)nc(N5CCOCC5)c4s3)cc2)CC1 [II^R-a-81, N-(1-(4-(2-(3-hydroxyphenyl)-4-morpholinothieno[3,2-d]pyrimidin-6-yl)phenyl)piperidin-4-yl)propionamide] | 6.00 to 7.00
C=CC(=O)NCCOCCOc1ccc2c(c1OC)N=C(NC(=O)c1cccnc1)N1CCN=C21 [IX-1, N-(8-(2-(2-acrylamidoethoxy)ethoxy)-7-methoxy-2,3-dihydroimidazo[1,2-c]quinazolin-5-yl)nicotinamide] | 7.00 to 8.00
C/C=C/C(=O)CCC(=O)NCCOc1ccc2c(c1OC)N=C(NC(=O)c1cccnc1)N1CCN=C21 [IX-2, (E)-N-(7-methoxy-8-(2-(4-oxohept-5-enamido)ethoxy)-2,3-dihydroimidazo[1,2-c]quinazolin-5-yl)nicotinamide] | 7.00 to 8.00
COc1c(OCCNC(=O)CCC(=O)/C=C/c2ccccc2)ccc2c1N=C(NC(=O)c1cccnc1)N1CCN=C21 [IX-3, (E)-N-(7-methoxy-8-(2-(4-oxo-6-phenylhex-5-enamido)ethoxy)-2,3-dihydroimidazo[1,2-c]quinazolin-5-yl)nicotinamide] | 7.00 to 8.00
COc1c(OCCNC(=O)CCCC(=O)/C=C/c2ccccc2)ccc2c1N=C(NC(=O)c1cccnc1)N1CCN=C21 [IX-4, (E)-N-(7-methoxy-8-(2-(5-oxo-7-phenylhept-6-enamido)ethoxy)-2,3-dihydroimidazo[1,2-c]quinazolin-5-yl)nicotinamide] | 6.00 to 7.00
COc1c(OCCNC(=O)c2ccc(NC(=O)/C=C/c3ncc[nH]3)cc2)ccc2c1N=C(NC(=O)c1cccnc1)N1CCN=C21 [IX-6, (E)-N-(8-(2-(4-(3-(1H-imidazol-2-yl)acrylamido)benzamido)ethoxy)-7-methoxy-2,3-dihydroimidazo[1,2-c]quinazolin-5-yl)nicotinamide] | 7.00 to 8.00
C=CC(=O)N1CCN(c2ccc(-c3ccnc4ccc(/C=C5\SC(=O)NC5=O)cc34)cn2)CC1 [V-4, (Z)-5-((4-(6-(4-acryloylpiperazin-1-yl)pyridin-3-yl)quinolin-6-yl)methylene)thiazolidine-2,4-dione] | 7.00 to 8.00
C=CC(=O)N1CCN(c2ccc(-c3ccnc4ccc(/C=C5\SC(=O)NC5=O)cc34)cc2)CC1 [V-11, (Z)-5-((4-(4-(4-acryloylpiperazin-1-yl)phenyl)quinolin-6-yl)methylene)thiazolidine-2,4-dione] | 7.00 to 8.00
C/C=C/C(=O)CCC(=O)N1CCN(c2ccc(-c3ccnc4ccc(/C=C5\SC(=O)NC5=O)cc34)cn2)CC1 [V-13, (Z)-5-((4-(6-(4-((E)-4-oxohept-5-enoyl)piperazin-1-yl)pyridin-3-yl)quinolin-6-yl)methylene)thiazolidine-2,4-dione] | > 8.00
C/C=C/C(=O)CCCC(=O)N1CCN(c2ccc(-c3ccnc4ccc(/C=C5\SC(=O)NC5=O)cc34)cn2)CC1 [V-14, (Z)-5-((4-(6-(4-((E)-5-oxooct-6-enoyl)piperazin-1-yl)pyridin-3-yl)quinolin-6-yl)methylene)thiazolidine-2,4-dione] | > 8.00
C/C=C/C(=O)CCC(=O)N1CCN(c2ccc(-c3ccnc4ccc(/C=C5\SC(=O)NC5=O)cc34)cc2)CC1 [V-15, (Z)-5-((4-(4-(4-((E)-4-oxohept-5-enoyl)piperazin-1-yl)phenyl)quinolin-6-yl)methylene)thiazolidine-2,4-dione] | 7.00 to 8.00
C/C=C/C(=O)CCCC(=O)N1CCN(c2ccc(-c3ccnc4ccc(/C=C5\SC(=O)NC5=O)cc34)cc2)CC1 [V-16, (Z)-5-((4-(4-(4-((E)-5-oxooct-6-enoyl)piperazin-1-yl)phenyl)quinolin-6-yl)methylene)thiazolidine-2,4-dione] | > 8.00
C/C=C/C(=O)CCCC(=O)N1CCc2ccc(-c3ccnc4ccc(/C=C5\SC(=O)NC5=O)cc34)cc2C1 [V-17, (Z)-5-((4-(2-((E)-5-oxooct-6-enoyl)-1,2,3,4-tetrahydroisoquinolin-7-yl)quinolin-6-yl)methylene)thiazolidine-2,4-dione] | 7.00 to 8.00
CC(C)=CC(=O)CCC(=O)N1CCN(c2ccc(-c3ccnc4ccc(/C=C5\SC(=O)NC5=O)cc34)cn2)CC1 [V-18, (Z)-5-((4-(6-(4-(6-methyl-4-oxohept-5-enoyl)piperazin-1-yl)pyridin-3-yl)quinolin-6-yl)methylene)thiazolidine-2,4-dione] | > 8.00
C=CC(=O)N1CCc2ccc(-c3ccnc4ccc(/C=C5\SC(=O)NC5=O)cc34)cc2C1 [V-19, (Z)-5-((4-(2-acryloyl-1,2,3,4-tetrahydroisoquinolin-7-yl)quinolin-6-yl)methylene)thiazolidine-2,4-dione] | 7.00 to 8.00
C/C=C/C(=O)CCCC(=O)Nc1ccc2c(c1)N(c1nc3c(s1)C(=O)NC(C)(C)C3)CCO2 [VI-24, (E)-N-(4-(6,6-dimethyl-4-oxo-4,5,6,7-tetrahydrothiazolo[5,4-c]pyridin-2-yl)-3,4-dihydro-2H-benzo[b][1,4]oxazin-6-yl)-5-oxooct-6-enamide] | < 6.00
C/C=C/C(=O)CCCC(=O)NCC(=O)Nc1ccc2c(c1)N(c1nc3c(s1)C(=O)NC(C)(C)C3)CCO2 [VI-25] | < 6.00
C=CC(=O)Nc1ccc(CN2CCC(n3ncc4c(N5CCOCC5)nc(-c5ccc(NC(=O)NC)cc5)nc43)CC2)cc1 [VII-5, N-(4-((4-(6-(4-(3-methylureido)phenyl)-4-morpholino-1H-pyrazolo[3,4-d]pyrimidin-1-yl)piperidin-1-yl)methyl)phenyl)acrylamide] | 6.00 to 7.00
C/C=C/C(=O)CCC(=O)N1CCC(n2nc(-c3ccc(OC)c(OC)c3)c3c(N)ncnc32)CC1 [XI-1, (E)-1-(4-(4-amino-3-(3,4-dimethoxyphenyl)-1H-pyrazolo[3,4-d]pyrimidin-1-yl)piperidin-1-yl)hept-5-ene-1,4-dione] | < 6.00
C=CC(=O)N(C)CC(=O)N1CCC(n2nc(-c3ccc(OC)c(OC)c3)c3c(N)ncnc32)CC1 [XI-2, N-(2-(4-(4-amino-3-(3,4-dimethoxyphenyl)-1H-pyrazolo[3,4-d]pyrimidin-1-yl)piperidin-1-yl)-2-oxoethyl)-N-methylacrylamide] | < 6.00
C=CC(=O)NCCC(=O)N1CCC[C@@H](n2nc(-c3cc4cc(O)ccc4[nH]3)c3c(N)ncnc32)C1 [XI-4, (R)—N-(3-(3-(4-amino-3-(5-hydroxy-1H-indol-2-yl)-1H-pyrazolo[3,4-d]pyrimidin-1-yl)piperidin-1-yl)-3-oxopropyl)acrylamide] | < 6.00
COc1ccc(-c2nn(C3CCN(C(=O)CCCC(=O)/C=C/c4ccccc4)CC3)c3ncnc(N)c23)cc1OC [XI-5] | < 6.00
C=CC(=O)Nc1ccc(C(=O)N2CCC(n3nc(-c4ccc(OC)c(OC)c4)c4c(N)ncnc43)CC2)cc1 [XI-6, N-(4-(4-(4-amino-3-(3,4-dimethoxyphenyl)-1H-pyrazolo[3,4-d]pyrimidin-1-yl)piperidine-1-carbonyl)phenyl)acrylamide] | < 6.00

Reference: patent US20110230476A1, “PI3 KINASE INHIBITORS AND USES THEREOF” (AVILA THERAPEUTICS, INC., priority 2009, published 2011)
